pEC50: −log10 of the molar value.
Legend:
Human betaherpesvirus 5 [1] = assay: Antiviral activity against recombinant HCMV AD169 expressing GFP infected in human foreskin fibroblasts measured after 7 days by GFP-based multi-round replication assay; assay type: functional, organism-based; conditions: Human betaherpesvirus 5, strain AD169, 168 h
Plasmodium falciparum [2] = assay: Antimalarial activity against ring stage Plasmodium falciparum 3D7 infected in type A-positive human erythrocytes after 72 hrs by SYBR green 1 dye-based fluorescence assay; assay type: functional, organism-based; conditions: 3D7, 72 h
Plasmodium falciparum [3] = assay: Potency index, ratio of betulin EC50 to compound EC50 for antimalarial activity against ring stage Plasmodium falciparum 3D7 infected in type A-positive human erythrocytes; assay type: functional
Plasmodium falciparum [4] = assay: Potency index, ratio of betulinic acid EC50 to compound EC50 for antimalarial activity against ring stage Plasmodium falciparum 3D7 infected in type A-positive human erythrocytes; assay type: functional
Human betaherpesvirus 5 [5] = assay: Potency index, ratio of betulinic acid EC50 to compound EC50 for antiviral activity against recombinant HCMV AD169 expressing GFP infected in human foreskin fibroblasts; assay type: functional, strain AD169
Human betaherpesvirus 5 [6] = assay: Potency index, ratio of artesunic acid EC50 to compound EC50 for antiviral activity against recombinant HCMV AD169 expressing GFP infected in human foreskin fibroblasts; assay type: functional, strain AD169

C=C(C)[C@@H]1CC[C@]2(COC(=O)CCC(=O)O[C@@H]3O[C@@H]4O[C@@]5(C)CC[C@H]6[C@H](C)CC[C@@H]([C@H]3C)[C@@]46OO5)CC[C@]3(C)[C@H](CC[C@@H]4[C@@]5(C)CC[C@H](O)C(C)(C)[C@@H]5CC[C@]43C)[C@@H]12
pEC50 (Human betaherpesvirus 5 [1]): 6.06 | pEC50 (Plasmodium falciparum [2]): 6.59 | Ratio EC50 (Plasmodium falciparum [3]): 20

C=C(C)[C@@H]1CC[C@]2(C(=O)O)CC[C@]3(C)[C@H](CC[C@@H]4[C@@]5(C)CC[C@H](OC(=O)CCC(=O)O[C@@H]6O[C@@H]7O[C@@]8(C)CC[C@H]9[C@H](C)CC[C@@H]([C@H]6C)[C@@]79OO8)C(C)(C)[C@@H]5CC[C@]43C)[C@@H]12
Ratio EC50 (Plasmodium falciparum [4]): 16 | Ratio EC50 (Human betaherpesvirus 5 [5]): 15 | pEC50 (Human betaherpesvirus 5 [1]): 6.62 | Ratio EC50 (Human betaherpesvirus 5 [6]): 23 | pEC50 (Plasmodium falciparum [2]): 7.07

C=C(C)[C@@H]1CC[C@]2(C(=O)O)CC[C@]3(C)[C@H](CC[C@@H]4[C@@]5(C)CC[C@H](O)C(C)(C)[C@@H]5CC[C@]43C)[C@@H]12 [BETULINIC ACID]
pEC50 (Human betaherpesvirus 5 [1]): 5.44 | pEC50 (Plasmodium falciparum [2]): 5.85

C[C@H]1[C@@H](O)O[C@@H]2O[C@@]3(C)CC[C@H]4[C@H](C)CC[C@@H]1[C@@]24OO3 [ARTENIMOL]
pEC50 (Human betaherpesvirus 5 [1]): < 5.00 | pEC50 (Plasmodium falciparum [2]): 8.59

CCN(CC)CCCC(C)Nc1ccnc2cc(Cl)ccc12 (stereo not given) [CHLOROQUINE PHOSPHATE]
pEC50 (Plasmodium falciparum [2]): 8.08

C=C(C)[C@@H]1CC[C@]2(CO)CC[C@]3(C)[C@H](CC[C@@H]4[C@@]5(C)CC[C@H](O)C(C)(C)[C@@H]5CC[C@]43C)[C@@H]12 [BETULIN]
pEC50 (Human betaherpesvirus 5 [1]): 5.70 | pEC50 (Plasmodium falciparum [2]): 5.40

From ChEMBL document CHEMBL4371023, “Synthesis of new betulinic acid/betulin-derived dimers and hybrids with potent antimalarial and antiviral activities” (Bioorg Med Chem, 2019)
